Measurements reported in PubChem BioAssay AID256 (DTP/NCI, 2004).
Values joined by “and” are separate entries in the source; they are usually repeats but may differ in a detail not shown here. Identical values can stand only once. Inconclusive results and toxic doses are left out. The calls were made as follows: active = survival T/C of 150% or more; inactive = T/C below 125% in these data.

System: CD2F1 mice, L1210 leukemia ip, survival T/C
Assay: NCI In Vivo Anticancer Drug Screen. Data for tumor model L1210 Leukemia (intraperitoneal) in CD2F1 (CDF1) mice
Conditions: higher = longer survival
Method in brief: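 Mice carrying a transplanted tumor received test compound or vehicle alone. The value is the measurement in the treated group divided by that in the vehicle-treated control group.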

[1] = endpoint: mean survival time, dose: 100.0 mg/kg/injection, schedule: Q04DX003 (ip), vehicle: saline with Tween-80
[2] = endpoint: mean survival time, dose: 200.0 mg/kg/injection, schedule: Q04DX003 (ip), vehicle: saline with Tween-80
[3] = endpoint: mean survival time, dose: 400.0 mg/kg/injection, schedule: Q04DX003 (ip), vehicle: saline with Tween-80
[4] = endpoint: mean survival time, dose: 100.0 mg/kg/injection, schedule: Q04DX003 (ip), vehicle: saline
[5] = endpoint: mean survival time, dose: 100.0 mg/kg/injection, schedule: Q01DX001 (ip), vehicle: saline
[6] = endpoint: mean survival time, dose: 200.0 mg/kg/injection, schedule: Q01DX001 (ip), vehicle: saline
[7] = endpoint: mean survival time, dose: 400.0 mg/kg/injection, schedule: Q01DX001 (ip), vehicle: saline
[8] = endpoint: mean survival time, dose: 100.0 mg/kg/injection, schedule: Q04DX002 (ip), vehicle: saline with Tween-80
[9] = endpoint: mean survival time, dose: 200.0 mg/kg/injection, schedule: Q04DX002 (ip), vehicle: saline with Tween-80
[10] = endpoint: mean survival time, dose: 400.0 mg/kg/injection, schedule: Q04DX002 (ip), vehicle: saline with Tween-80
[11] = endpoint: mean survival time, dose: 100.0 mg/kg/injection, schedule: Q01DX009 (ip), vehicle: saline
[12] = endpoint: mean survival time, dose: 100.0 mg/kg/injection, schedule: Q01DX009 (ip), vehicle: saline with Tween-80
[13] = endpoint: mean survival time, dose: 200.0 mg/kg/injection, schedule: Q01DX009 (ip), vehicle: saline with Tween-80
[14] = endpoint: mean survival time, dose: 50.0 mg/kg/injection, schedule: Q01DX009 (ip), vehicle: saline

Measured: T/C

Nc1n[nH]c2ccccc12
active: endpoint: median survival time, dose: 200.0 mg/kg/injection, schedule: Q01DX009 (ip), vehicle: acid diluted with saline 154 % of control and 158 % of control | endpoint: median survival time, dose: 400.0 mg/kg/injection, schedule: Q01DX009 (ip), vehicle: acid diluted with saline 158 % of control
inactive: endpoint: median survival time, dose: 25.0 mg/kg/injection, schedule: Q01DX009 (ip), vehicle: acid diluted with saline 101 % of control and 103 % of control and 105 % of control | endpoint: median survival time, dose: 50.0 mg/kg/injection, schedule: Q01DX009 (ip), vehicle: acid diluted with saline 101 % of control and 108 % of control and 111 % of control | endpoint: median survival time, dose: 100.0 mg/kg/injection, schedule: Q01DX009 (ip), vehicle: acid diluted with saline 107 % of control

CCN(CC)Cc1ccc(Nc2cc(C)nc(/N=C(\N)Nc3ccc(Cl)c(Cl)c3)n2)cc1
inactive: endpoint: mean survival time, dose: 12.5 mg/kg/injection, schedule: Q04DX003 (ip), vehicle: saline with Tween-80 98 % of control | endpoint: mean survival time, dose: 25.0 mg/kg/injection, schedule: Q04DX003 (ip), vehicle: saline with Tween-80 95 % of control

O=C(NC/C=C/Br)NC1CCCc2ccccc21 (configuration not stated)
inactive: endpoint: mean survival time, dose: 100.0 mg/kg/injection, schedule: Q04DX003 (ip), vehicle: other 96 % of control | endpoint: mean survival time, dose: 200.0 mg/kg/injection, schedule: Q04DX003 (ip), vehicle: other 102 % of control | endpoint: mean survival time, dose: 400.0 mg/kg/injection, schedule: Q04DX003 (ip), vehicle: other 96 % of control

O=[N+]([O-])/C=C/c1cc2ccccc2[nH]1
inactive: endpoint: mean survival time, dose: 100.0 mg/kg/injection, schedule: Q04DX003 (ip), vehicle: acetone 94 % of control | endpoint: mean survival time, dose: 200.0 mg/kg/injection, schedule: Q04DX003 (ip), vehicle: acetone 94 % of control | endpoint: mean survival time, dose: 400.0 mg/kg/injection, schedule: Q04DX003 (ip), vehicle: acetone 105 % of control

CCC(=O)c1cc([N+](=O)[O-])ccc1N
inactive: [1] 95 % of control | [2] 95 % of control

C=C1CCCCCCCCCCC1O (configuration not stated)
inactive: [1] 91 % of control | [2] 95 % of control | [3] 91 % of control

CC(C)CC([N+](C)(C)C)P(=O)([O-])O (configuration not stated)
inactive: [4] 101 % of control | endpoint: mean survival time, dose: 200.0 mg/kg/injection, schedule: Q04DX003 (ip), vehicle: saline 95 % of control | endpoint: mean survival time, dose: 400.0 mg/kg/injection, schedule: Q04DX003 (ip), vehicle: saline 98 % of control

COc1ccc2ccccc2c1NC(C)=O
inactive: [5] 102 % of control | [6] 101 % of control | [7] 101 % of control

O=CN(CCNc1ccccc1)c1ccccc1
inactive: [1] 96 % of control | [2] 101 % of control | [3] 95 % of control

CSc1nc(NC2OCC(O)C(O)C2O)c(I)c(=O)[nH]1 (configuration not stated)
inactive: endpoint: median survival time, dose: 12.5 mg/kg/injection, schedule: Q01DX005 (ip), vehicle: saline with Tween-80 100 % of control | endpoint: median survival time, dose: 25.0 mg/kg/injection, schedule: Q01DX005 (ip), vehicle: saline with Tween-80 100 % of control | endpoint: median survival time, dose: 50.0 mg/kg/injection, schedule: Q01DX005 (ip), vehicle: saline with Tween-80 103 % of control | endpoint: median survival time, dose: 100.0 mg/kg/injection, schedule: Q01DX005 (ip), vehicle: saline with Tween-80 107 % of control | endpoint: median survival time, dose: 200.0 mg/kg/injection, schedule: Q01DX005 (ip), vehicle: saline with Tween-80 107 % of control

N#Cc1cccc2c(S(=O)(=O)O)cccc12
inactive: [1] 98 % of control | [2] 90 % of control | [3] 104 % of control

CC(C)C1CCC(C)C(C(O)(C(F)(F)F)C(F)(F)F)C1O (configuration not stated)
inactive: [5] 101 % of control | [8] 98 % of control | [6] 101 % of control | [9] 98 % of control | [7] 97 % of control | [10] 94 % of control

CN1C(=S)c2ccccc2S1(=O)=O
inactive: [11] 96 % of control | endpoint: mean survival time, dose: 200.0 mg/kg/injection, schedule: Q01DX009 (ip), vehicle: saline 96 % of control | endpoint: mean survival time, dose: 400.0 mg/kg/injection, schedule: Q01DX009 (ip), vehicle: saline 102 % of control

COc1ccc(/C=C(\C#N)C(=O)NCCc2ccc(OC)c(OC)c2)cc1OC
inactive: [8] 95 % of control | [9] 95 % of control | [10] 95 % of control

CC(=O)CC(C)(C)N
inactive: endpoint: mean survival time, dose: 50.0 mg/kg/injection, schedule: Q01DX009 (ip), vehicle: saline with Tween-80 94 % of control | [12] 97 % of control | [1] 97 % of control | [13] 92 % of control

CCCCCCCC(=O)N1CCCN(C(=O)CCCCCCC)C1
inactive: endpoint: mean survival time, dose: 25.0 mg/kg/injection, schedule: Q04DX003 (ip), vehicle: saline 94 % of control | endpoint: mean survival time, dose: 50.0 mg/kg/injection, schedule: Q04DX003 (ip), vehicle: saline 95 % of control | [4] 97 % of control

O=C(/C=C/C(=O)OCCCl)OCCCl
inactive: [1] 104 % of control | [2] 96 % of control

CC(=O)OCC1OC(N2CN=C(N)NC2=O)C(OC(C)=O)C1OC(C)=O (configuration not stated)
inactive: endpoint: mean survival time, dose: 3.12 mg/kg/injection, schedule: Q01DX009 (ip), vehicle: saline 109 % of control | endpoint: mean survival time, dose: 6.25 mg/kg/injection, schedule: Q01DX009 (ip), vehicle: saline 108 % of control | endpoint: mean survival time, dose: 12.5 mg/kg/injection, schedule: Q01DX009 (ip), vehicle: saline 115 % of control and 110 % of control
active: [14] 178 % of control and 183 % of control | [11] 203 % of control and 208 % of control

Cc1occc1S(N)(=O)=O
inactive: endpoint: mean survival time, dose: 75.0 mg/kg/injection, schedule: Q04DX002 (ip), vehicle: saline with Tween-80 120 % of control

COc1c2c(c(OC)c3c(OC)c4ccccc4c(OC)c13)CC(O)CC2 (configuration not stated)
inactive: endpoint: mean survival time, dose: 12.5 mg/kg/injection, schedule: Q01DX005 (ip), vehicle: Klucel (hydroxypropylcellulose) (HPC) 92 % of control | endpoint: mean survival time, dose: 25.0 mg/kg/injection, schedule: Q01DX005 (ip), vehicle: Klucel (hydroxypropylcellulose) (HPC) 90 % of control | endpoint: mean survival time, dose: 50.0 mg/kg/injection, schedule: Q01DX005 (ip), vehicle: Klucel (hydroxypropylcellulose) (HPC) 97 % of control | endpoint: mean survival time, dose: 100.0 mg/kg/injection, schedule: Q01DX005 (ip), vehicle: Klucel (hydroxypropylcellulose) (HPC) 92 % of control | endpoint: mean survival time, dose: 200.0 mg/kg/injection, schedule: Q01DX005 (ip), vehicle: Klucel (hydroxypropylcellulose) (HPC) 103 % of control | endpoint: mean survival time, dose: 400.0 mg/kg/injection, schedule: Q01DX005 (ip), vehicle: Klucel (hydroxypropylcellulose) (HPC) 87 % of control

CCOC(=O)CN1CCC(C2(c3cc4ccccc4[nH]3)OCCO2)CC1
inactive: endpoint: mean survival time, dose: 100.0 mg/kg/injection, schedule: Q01DX001 (ip), vehicle: saline with Tween-80 102 % of control | endpoint: mean survival time, dose: 200.0 mg/kg/injection, schedule: Q01DX001 (ip), vehicle: saline with Tween-80 102 % of control | endpoint: mean survival time, dose: 400.0 mg/kg/injection, schedule: Q01DX001 (ip), vehicle: saline with Tween-80 102 % of control

NCCNCCNCCNCCN (tested in a mixture with another compound)
inactive: [14] 104 % of control | [11] 111 % of control | [1] 110 % of control | [2] 105 % of control

Oc1ccccc1CNc1ccccc1
inactive: [1] 98 % of control | [2] 93 % of control | [3] 104 % of control

CC1CCC2(OC1)OC1C(O)C3C4CCC5CC(OC6OC(CO)C(OC7OC(CO)C(O)C(OC8OCC(O)C(O)C8O)C7OC7OC(CO)C(O)C(OC8OC(CO)C(O)C(O)C8O)C7O)C(O)C6O)C(O)CC5(C)C4CCC3(C)C1C2C (configuration not stated)
inactive: endpoint: mean survival time, dose: 5.0 mg/kg/injection, schedule: Q01DX009 (ip), vehicle: saline 92 % of control | endpoint: mean survival time, dose: 6.25 mg/kg/injection, schedule: Q01DX001 (ip), vehicle: saline with Tween-80 96 % of control | endpoint: mean survival time, dose: 10.0 mg/kg/injection, schedule: Q01DX009 (ip), vehicle: saline 93 % of control | endpoint: mean survival time, dose: 12.5 mg/kg/injection, schedule: Q01DX001 (ip), vehicle: saline with Tween-80 103 % of control | endpoint: mean survival time, dose: 20.0 mg/kg/injection, schedule: Q01DX009 (ip), vehicle: saline 96 % of control | endpoint: mean survival time, dose: 25.0 mg/kg/injection, schedule: Q01DX001 (ip), vehicle: saline with Tween-80 100 % of control | endpoint: mean survival time, dose: 40.0 mg/kg/injection, schedule: Q01DX009 (ip), vehicle: saline 102 % of control

COC(=O)N/N=C\c1ccc(O)c(OC)c1
inactive: [12] 104 % of control | [13] 104 % of control | endpoint: mean survival time, dose: 400.0 mg/kg/injection, schedule: Q01DX009 (ip), vehicle: saline with Tween-80 97 % of control

Nc1nc(N)c2nc(CNc3ccc(C(=O)NC(CCC(=O)O)C(=O)O)cc3)ccc2n1 (configuration not stated)
inactive: endpoint: mean survival time, dose: 15.63 micrograms/kg/injection, schedule: Q01DX005 (ip), vehicle: sodium bicarbonate 118 % of control | endpoint: mean survival time, dose: 31.25 micrograms/kg/injection, schedule: Q01DX005 (ip), vehicle: sodium bicarbonate 118 % of control | endpoint: mean survival time, dose: 62.5 micrograms/kg/injection, schedule: Q01DX005 (ip), vehicle: sodium bicarbonate 120 % of control and 110 % of control | endpoint: mean survival time, dose: 125.0 micrograms/kg/injection, schedule: Q01DX005 (ip), vehicle: sodium bicarbonate 113 % of control
